Where “and” joins values, the source holds several entries; their conditions need not be identical. Equal entries are not always repeated.
Tests used:
[1] = test system: SARS-CoV-2 replicon system (pBAC-SARS-CoV-2-Replicon-Luc); assay: microbe, parasite or virus in culture; type: cell-based; conditions: for EC50 / EC90: Severe acute respiratory syndrome coronavirus 2, HEK-293T, 60 h; for EC50: read-out: EC50 (Confidence 95%), replicon; for EC90: read-out: EC90 (Confidence 95%), replicon
Vero E6 cells = assay: CCK-8 cell viability assay; type: cell-based, African green monkey; conditions: individual replicate values, Fig.S4
Protocol: To investigate the effect of drugs on cell viability, Vero E6 cells were seeded in 96-well plates at a density of 20,000 cells per well and were treated with drugs at indicated concentrations (0, 0.01, 0.1, 1, 5, 10, 50, 75, 100, 200 μM) for 48 hours. Cell viability was tested by using Cell Counting Kit-8 (CCK-8, Bimake, B34302). The figures were plotted from cell viability percentage versus the drug concentrations using GraphPad Prism 6 software.
Fig. S4. Cytotoxicity assay of compounds in Vero E6 cells.
Vero E6 cells were plated in 96-well plates and treated with increasing concentrations
of each indicated compound, ranging from 0 to 200 μM, for 48 hours. Cell viability was
tested using Cell Counting Kit-8 (CCK-8). Data are presented as mean ± SD.

[2] = Permeability and efflux ratio in Caco-2 cells; type: in vitro ADME; conditions: human; for Papp A→B: AB; for Papp B→A: BA
Text: ATV019, and ATV020 in Caco-2 cells.
Compound Caco-2 AB/BA (Papp (10-6 cm/s)) a Efflux ratio

**Q.** Which “activity in the replicon system in comparison with parent GS-441524” value (from here on “activity in the replicon system”) [1] does the source give for `CC(C)C(=O)Nc1ncnn2c([C@]3(C#N)O[C@H](COC(=O)C(C)C)[C@@H](OC(=O)C(C)C)[C@H]3OC(=O)C(C)C)ccc12` [ATV001] here?
**A.** Its value is “decreased antiviral activities”.

**Q.** Which “activity in the replicon system” value [1] does the source give for `CC(=O)Nc1ncnn2c([C@]3(C#N)O[C@H](COC(C)=O)[C@@H](OC(C)=O)[C@H]3OC(C)=O)ccc12` [ATV002] here?
**A.** Its value is “decreased antiviral activities”.

**Q.** With `CC(=O)OC[C@H]1O[C@@](C#N)(c2ccc3c(N)ncnn23)[C@H](OC(C)=O)[C@@H]1OC(C)=O` [ATV003] as the compound, how does the “activity in the replicon system” value [1] read?
**A.** Its value is “did not substantially change the activity”.

**Q.** What about the EC50 [1] of the same compound?
**A.** The EC50 was 0.829 µM.

**Q.** And the EC90 [1]?
**A.** Its EC90 is 2.31 µM.

**Q.** Which results are given for `CC(C)C(=O)OC[C@H]1O[C@@](C#N)(c2ccc3c(N)ncnn23)[C@H](OC(=O)C(C)C)[C@@H]1OC(=O)C(C)C` [ATV004]?
**A.** activity in the replicon system in comparison with parent GS-441524 [1]: improved the inhibitory activities; EC50 [1]: 0.675 µM; EC90 [1]: 2.07 µM

**Q.** With `CC(=O)OC[C@H]1O[C@@](C#N)(c2ccc3c(N)ncnn23)[C@H](O)[C@@H]1O` [ATV007] as the compound, how does the EC50 [1] read?
**A.** The EC50 was 1.96 µM.

**Q.** What about the EC90 [1] of the same compound?
**A.** The EC90 was 3.73 µM.

**Q.** Which EC50 [1] does the source give for `CCC(=O)OC[C@H]1O[C@@](C#N)(c2ccc3c(N)ncnn23)[C@H](O)[C@@H]1O` [ATV008] here?
**A.** Its EC50 is 0.815 µM.

**Q.** What about the EC90 [1] of the same compound?
**A.** The EC90 was 3.14 µM.

**Q.** For `CCCC(=O)OC[C@H]1O[C@@](C#N)(c2ccc3c(N)ncnn23)[C@H](O)[C@@H]1O` [ATV0009], which “cell viability (% of control)” value (Vero E6 cells; 0.01 μM compound, 0.01 µM) is on record?
**A.** The value was 109.752 % of control and 112.521 % of control and 116.766 % of control.

**Q.** What about the “cell viability (% of control)” value (Vero E6 cells; 0.1 μM compound, 0.1 µM) of the same compound?
**A.** Its value is 123.319 % of control and 106.337 % of control and 117.182 % of control.

**Q.** What about the “cell viability (% of control)” value (Vero E6 cells; 1 μM compound, 1 µM) of the same compound?
**A.** The value was 116.074 % of control and 120.089 % of control and 107.814 % of control.

**Q.** And the “cell viability (% of control)” value (Vero E6 cells; 2 μM compound, 2 µM)?
**A.** Its value is 114.09 % of control and 114.182 % of control and 114.044 % of control.

**Q.** And the “cell viability (% of control)” value (Vero E6 cells; 5 μM compound, 5 µM)?
**A.** Its value is 120.412 % of control and 124.38 % of control and 128.395 % of control.

**Q.** And the “cell viability (% of control)” value (Vero E6 cells; 10 μM compound, 10 µM)?
**A.** The value was 124.625 % of control and 120.839 % of control and 120.84 % of control.

**Q.** What about the “cell viability (% of control)” value (Vero E6 cells; 50 μM compound, 50 µM) of the same compound?
**A.** Its value is 90.5983 % of control and 85.7996 % of control and 95.8178 % of control.

**Q.** With `N#C[C@@]1(c2ccc3c(N)ncnn23)O[C@H](COC(=O)C2CC2)[C@@H](O)[C@H]1O` [ATV012] as the compound, how does the EC50 [1] read?
**A.** Its EC50 is 2.17 µM.

**Q.** And the EC90 [1]?
**A.** Its EC90 is 3.51 µM.

**Q.** Which results are given for `N#C[C@@]1(c2ccc3c(N)ncnn23)O[C@H](COC(=O)C2CCCC2)[C@@H](O)[C@H]1O` [ATV015]?
**A.** EC50 [1]: 0.713 µM; EC90 [1]: 0.962 µM

**Q.** Which EC50 [1] does the source give for `N#C[C@@]1(c2ccc3c(N)ncnn23)O[C@H](COC(=O)CC(F)(F)F)[C@@H](O)[C@H]1O` [ATV016] here?
**A.** The EC50 was 0.83 µM.

**Q.** And the EC90 [1]?
**A.** The EC90 was 1.23 µM.

**Q.** Which efflux ratio [2] does the source give for `CC(C)[C@@H](N)C(=O)OC[C@H]1O[C@@](C#N)(c2ccc3c(N)ncnn23)[C@H](O)[C@@H]1O` [ATV019] here?
**A.** The efflux ratio was 2.47.

**Q.** And the Papp A→B [2]?
**A.** Its Papp A→B is 0.28 ×10⁻⁶ cm/s.

**Q.** What about the Papp B→A [2] of the same compound?
**A.** Its Papp B→A is 0.68 ×10⁻⁶ cm/s.

**Q.** What about the EC50 [1] of the same compound?
**A.** The EC50 was 0.974 µM.

**Q.** What about the EC90 [1] of the same compound?
**A.** The EC90 was 3.81 µM.

**Q.** Which efflux ratio [2] does the source give for `CC(C)[C@H](N)C(=O)OC[C@H]1O[C@@](C#N)(c2ccc3c(N)ncnn23)[C@H](O)[C@@H]1O` [ATV020] here?
**A.** Its efflux ratio is 1.28.

**Q.** And the Papp A→B [2]?
**A.** Its Papp A→B is 0.17 ×10⁻⁶ cm/s.

**Q.** What about the Papp B→A [2] of the same compound?
**A.** Its Papp B→A is 0.22 ×10⁻⁶ cm/s.

**Q.** What about the EC50 [1] of the same compound?
**A.** The EC50 was 2.35 µM.

**Q.** And the EC90 [1]?
**A.** Its EC90 is 13.4 µM.

**Q.** With `CCC(C)[C@H](N)C(=O)OC[C@H]1O[C@@](C#N)(c2ccc3c(N)ncnn23)[C@H](O)[C@@H]1O` (stereo partly shown) [ATV023] as the compound, how does the EC50 [1] read?
**A.** Its EC50 is 0.95 µM.

**Q.** And the EC90 [1]?
**A.** The EC90 was 2.01 µM.

**Q.** With `CCC(C)[C@@H](N)C(=O)OC[C@H]1O[C@@](C#N)(c2ccc3c(N)ncnn23)[C@H](O)[C@@H]1O` (stereo partly shown) [ATV024] as the compound, how does the EC50 [1] read?
**A.** Its EC50 is 0.864 µM.

**Q.** What about the EC90 [1] of the same compound?
**A.** The EC90 was 1.47 µM.

**Q.** For `CCC(CC)COC(=O)[C@H](C)N[P@](=O)(OC[C@H]1O[C@@](C#N)(c2ccc3c(N)ncnn23)[C@H](O)[C@@H]1O)Oc1ccccc1` [RDV], which “cell viability (% of control)” value (Vero E6 cells; 0.1 μM compound, 0.1 µM) is on record?
**A.** Its value is 100.353 % of control and 102.354 % of control and 103.353 % of control.

**Q.** What about the “cell viability (% of control)” value (Vero E6 cells; 1 μM compound, 1 µM) of the same compound?
**A.** The value was 99.5206 % of control and 102.566 % of control and 112.154 % of control.

**Q.** And the “cell viability (% of control)” value (Vero E6 cells; 2 μM compound, 2 µM)?
**A.** The value was 97.4544 % of control and 95.2342 % of control and 99.3423 % of control.

**Q.** What about the “cell viability (% of control)” value (Vero E6 cells; 5 μM compound, 5 µM) of the same compound?
**A.** Its value is 91.6526 % of control and 95.3187 % of control and 100 % of control.

**Q.** And the “cell viability (% of control)” value (Vero E6 cells; 10 μM compound, 10 µM)?
**A.** Its value is 93.1472 % of control and 90.0169 % of control and 88.1839 % of control.

**Q.** And the “cell viability (% of control)” value (Vero E6 cells; 20 μM compound, 20 µM)?
**A.** The value was 90.3424 % of control and 95.3423 % of control and 99.3423 % of control.

**Q.** And the “cell viability (% of control)” value (Vero E6 cells; 50 μM compound, 50 µM)?
**A.** Its value is 80.3835 % of control and 84.2922 % of control and 85.9278 % of control.

Source: publication PMC9161374 (Science Translational Medicine, 2022)
